{"source": "paper PMC4877006", "about": "“From Binding-Induced Dynamic Effects in SH3 Structures to Evolutionary Conserved Sectors” (PLoS Computational Biology, 2016)", "design_in_all_cases": "species or system chicken", "key": {"c-Src S26A (SH3 domain)": {"test_system": "c-Src S26A (SH3 domain)", "test": "ITC binding of peptide RLP2 to c-Src SH3 S26A", "details": "25 °C", "protocol": "(§1) Differential Scanning Calorimetry (DSC) was used to evaluate the effect of the mutation on the conformational equilibrium and stability of the protein. Isothermal Titration Calorimetry (ITC) measured the binding energetics of all mutants to the RLP2 ligand at 25°C. The results for the 15 mutants studied are summarized in Figs 1D, S1 and S2, as well as S3 and S4 Tables.\n(§2) The plasmid pET15b containing the chicken c-Src-SH3 domain gene was a generous gift from Dr. E. Freire (Johns Hopkins University). The genes encoding for the c-Src-SH3 mutants were obtained by site directed mutagenesis using the QuickChange Site-Directed-Mutagenesis Kit (Stratagene) taking the WT c-Src-SH3 plasmid as template or purchased from Top Gene Technologies, Canada. WT and mutants of c-Src-SH3 domain were expressed and purified as previously described for the wild type protein [68]. The peptide RLP2 (Ac-RALPPLPRY-NH2) was bought from Peptide 2.0 (Piscataway, USA) and JPT (Berlin, Germany) with a purity > 95%. Protein concentration was determined by absorbance at 280 nm using an extinction coefficient of 16500 M^-1·cm^-1. Peptide concentration was determined by absorbance at 274 nm using an extinction coefficient of 1400 M^-1·cm^-1.\n(§3) Isothermal titration calorimetry was performed using a high-precision VP titration calorimetric system (Microcal Inc., Northampton, MA) as previously described. […] Titrations were made using a profile of injection volumes from 3 μL to 20 μL to define the titration curve more clearly. The heat produced by the binding reaction between the Src-SH3 domain and the peptide ligand was calculated as the difference between the heat of reaction and the corresponding heat of dilution, as obtained from independent titrations of the peptide ligand into the buffer. The resulting binding isotherms were analyzed by non-linear least-square fittings of the experimental data to a model corresponding to a single set of identical sites, as described before.\n(§4) Supplementary file pcbi.1004938.s008.doc: S3 Table Analysis of Src SH3 binding affinities through ITC. Thermodynamic binding affinity to peptide RLP2. A * indicates experiment made by fluorescence titration only. (DOC) Click here for additional data file."}, "c-Src N45S (SH3 domain)": {"target": "T1, c-Src N45S (SH3 domain) (Gallus gallus, UniProt P00523, N113S)", "T1 construct": "The plasmid pET15b containing the chicken c-Src-SH3 domain gene; made in house", "test": "ITC binding of peptide RLP2 to c-Src SH3 N45S", "details": "25 °C", "protocol": "as §1, §2, §3, §4"}, "c-Src F18W (SH3 domain)": {"target": "T2, c-Src F18W (SH3 domain) (Gallus gallus, UniProt P00523, F86W)", "T2 construct": "The plasmid pET15b containing the chicken c-Src-SH3 domain gene; made in house", "test": "ITC binding of peptide RLP2 to c-Src SH3 F18W", "details": "25 °C", "protocol": "as §1, §2, §3, §4"}, "c-Src F18L (SH3 domain) [1]": {"target": "T3, c-Src F18L (SH3 domain) (Gallus gallus, UniProt P00523, F86L/Q128R)", "T3 construct": "The plasmid pET15b containing the chicken c-Src-SH3 domain gene; made in house", "test": "ITC binding of peptide RLP2 to c-Src SH3 F18L", "details": "ITC, 25 °C", "protocol": "as §1, §2, §3, §4"}, "c-Src F18L (SH3 domain) [2]": {"test_system": "c-Src F18L (SH3 domain)", "test": "ITC binding of peptide RLP2 to c-Src SH3 F18L", "details": "25 °C, binding of RLP2, F18L relative to wt", "protocol": "as §1, §2, §3, §4"}, "c-Src wt (SH3 domain)": {"target": "T4, c-Src wt (SH3 domain) (Gallus gallus, UniProt P00523, Q128R)", "T4 construct": "The plasmid pET15b containing the chicken c-Src-SH3 domain gene; made in house", "test": "ITC binding of peptide RLP2 to c-Src SH3 wt", "details": "25 °C", "protocol": "as §1, §2, §3, §4"}, "c-Src L32V (SH3 domain)": {"target": "T5, c-Src L32V (SH3 domain) (Gallus gallus, UniProt P00523, L100V/Q128R)", "T5 construct": "The plasmid pET15b containing the chicken c-Src-SH3 domain gene; made in house", "test": "Fluorescence titration binding of peptide RLP2 to c-Src SH3 L32V", "details": "fluorescence titration only, 25 °C", "source_text": "as §2, §4"}, "c- Src I77V (SH3 domain)": {"target": "T6, c- Src I77V (SH3 domain) (Gallus gallus, UniProt P00523, I132V)", "T6 construct": "The plasmid pET15b containing the chicken c-Src-SH3 domain gene; made in house", "test": "ITC binding of peptide RLP2 to c-Src SH3 I77V", "details": "25 °C", "protocol": "as §1, §2, §3, §4"}, "c-Src R73K (SH3 domain)": {"target": "T7, c-Src R73K (SH3 domain) (Gallus gallus, UniProt P00523, Q128K)", "T7 construct": "The plasmid pET15b containing the chicken c-Src-SH3 domain gene; made in house", "test": "ITC binding of peptide RLP2 to c-Src SH3 R73K", "details": "25 °C", "protocol": "as §1, §2, §3, §4"}, "[3]": {"details": "binding of RLP2, N45S relative to wt"}, "[4]": {"details": "binding of RLP2, F18W relative to wt"}, "[5]": {"details": "binding of RLP2, wt = reference"}, "[6]": {"details": "binding of RLP2, I77V relative to wt"}, "[7]": {"details": "binding of RLP2, R73K relative to wt"}}, "data": [{"substance": "Ac-RALPPLPRY-NH2 [RLP2, Ac-RALPPLPRY-NH2]", "values": [{"measurement": "∆∆Hb (25 ºC)", "setting": "c-Src S26A (SH3 domain); binding of RLP2, S26A relative to wt", "result": "0.4 ± 0.5", "unit": "kcal/mol"}, {"measurement": "∆Gb (25 ºC)", "setting": "c-Src S26A (SH3 domain); ITC, binding of RLP2, S26A", "result": "-6.45 ± 0.05", "unit": "kcal/mol"}, {"measurement": "∆Hb (25 ºC)", "setting": "c-Src S26A (SH3 domain); ITC, binding of RLP2, S26A", "result": "-13.8 ± 0.5", "unit": "kcal/mol"}, {"measurement": "Kd", "setting": "c-Src S26A (SH3 domain); ITC, RLP2 about 2 mM titrated into SH3 (50-122 μM), S26A (control), read-out: Kd (25 ºC)", "result": "18.8 ± 1.4", "unit": "µM"}, {"measurement": "∆∆Gb (25 ºC)", "setting": "c-Src N45S (SH3 domain); [3]", "result": "0.19 ± 0.04", "unit": "kcal/mol"}, {"measurement": "∆∆Hb (25 ºC)", "setting": "c-Src N45S (SH3 domain); [3]", "result": "0.1 ± 0.3", "unit": "kcal/mol"}, {"measurement": "∆Gb (25 ºC)", "setting": "c-Src N45S (SH3 domain); ITC, binding of RLP2, N45S", "result": "-6.44 ± 0.02", "unit": "kcal/mol"}, {"measurement": "∆Hb (25 ºC)", "setting": "c-Src N45S (SH3 domain); ITC, binding of RLP2, N45S", "result": "-14.1 ± 0.2", "unit": "kcal/mol"}, {"measurement": "Kd", "setting": "c-Src N45S (SH3 domain); ITC, RLP2 about 2 mM titrated into SH3 (50-122 μM), N45S, read-out: Kd (25 ºC)", "result": "19 ± 0.6", "unit": "µM"}, {"measurement": "∆∆Gb (25 ºC)", "setting": "c-Src F18W (SH3 domain); [4]", "result": "0.23 ± 0.03", "unit": "kcal/mol"}, {"measurement": "∆∆Hb (25 ºC)", "setting": "c-Src F18W (SH3 domain); [4]", "result": "1.2 ± 0.2", "unit": "kcal/mol"}, {"measurement": "∆Gb (25 ºC)", "setting": "c-Src F18W (SH3 domain); ITC, binding of RLP2, F18W", "result": "-6.40 ± 0.01", "unit": "kcal/mol"}, {"measurement": "∆Hb (25 ºC)", "setting": "c-Src F18W (SH3 domain); ITC, binding of RLP2, F18W", "result": "-13.0 ± 0.1", "unit": "kcal/mol"}, {"measurement": "Kd", "setting": "c-Src F18W (SH3 domain); ITC, RLP2 about 2 mM titrated into SH3 (50-122 μM), F18W, read-out: Kd (25 ºC)", "result": "20.2 ± 0.3", "unit": "µM"}, {"measurement": "∆Gb (25 ºC)", "setting": "c-Src F18L (SH3 domain) [1]; binding of RLP2, F18L", "result": "-6.64 ± 0.01", "unit": "kcal/mol"}, {"measurement": "∆Hb (25 ºC)", "setting": "c-Src F18L (SH3 domain) [1]; binding of RLP2, F18L", "result": "-14.5 ± 0.1", "unit": "kcal/mol"}, {"measurement": "Kd", "setting": "c-Src F18L (SH3 domain) [1]; RLP2 about 2 mM titrated into SH3 (50-122 μM), F18L, read-out: Kd (25 ºC)", "result": "13.5 ± 0.3", "unit": "µM"}, {"measurement": "∆∆Gb (25 ºC)", "setting": "c-Src F18L (SH3 domain) [2]", "result": "-0.01 ± 0.03", "unit": "kcal/mol"}, {"measurement": "∆∆Hb (25 ºC)", "setting": "c-Src F18L (SH3 domain) [2]", "result": "-0.3 ± 0.2", "unit": "kcal/mol"}, {"measurement": "∆∆Gb (25 ºC)", "setting": "c-Src wt (SH3 domain); [5]", "result": 0, "unit": "kcal/mol"}, {"measurement": "∆∆Hb (25 ºC)", "setting": "c-Src wt (SH3 domain); [5]", "result": 0, "unit": "kcal/mol"}, {"measurement": "∆Gb (25 ºC)", "setting": "c-Src wt (SH3 domain); ITC, binding of RLP2, wt", "result": "-6.63 ± 0.03", "unit": "kcal/mol"}, {"measurement": "∆Hb (25 ºC)", "setting": "c-Src wt (SH3 domain); ITC, binding of RLP2, wt", "result": "-14.2 ± 0.2", "unit": "kcal/mol"}, {"measurement": "Kd", "setting": "c-Src wt (SH3 domain); ITC, RLP2 about 2 mM titrated into SH3 (50-122 μM), single set of identical sites, wt, read-out: Kd (25 ºC)", "result": "13.8 ± 0.6", "unit": "µM"}, {"measurement": "∆∆Gb (25 ºC)", "setting": "c-Src L32V (SH3 domain); L32V relative to wt", "result": "1.76 ± 0.07", "unit": "kcal/mol"}, {"measurement": "∆Gb (25 ºC)", "setting": "c-Src L32V (SH3 domain); binding of RLP2, L32V", "result": "-4.87 ± 0.06", "unit": "kcal/mol"}, {"measurement": "Kd", "setting": "c-Src L32V (SH3 domain); L32V, read-out: Kd (25 ºC)", "result": "269 ± 29", "unit": "µM"}, {"measurement": "∆∆Gb (25 ºC)", "setting": "c- Src I77V (SH3 domain); [6]", "result": "0.31 ± 0.03", "unit": "kcal/mol"}, {"measurement": "∆∆Hb (25 ºC)", "setting": "c- Src I77V (SH3 domain); [6]", "result": "0.5 ± 0.2", "unit": "kcal/mol"}, {"measurement": "∆Hb (25 ºC)", "setting": "c- Src I77V (SH3 domain); ITC, binding of RLP2, I77V", "result": "-13.7 ± 0.1", "unit": "kcal/mol"}, {"measurement": "Kd", "setting": "c- Src I77V (SH3 domain); ITC, RLP2 about 2 mM titrated into SH3 (50-122 μM), I77V, read-out: Kd (25 ºC)", "result": "15.5 ± 0.3", "unit": "µM"}, {"measurement": "∆∆Gb (25 ºC)", "setting": "c-Src R73K (SH3 domain); [7]", "result": "-0.12 ± 0.04", "unit": "kcal/mol"}, {"measurement": "∆∆Hb (25 ºC)", "setting": "c-Src R73K (SH3 domain); [7]", "result": "0.3 ± 0.2", "unit": "kcal/mol"}, {"measurement": "∆Gb (25 ºC)", "setting": "c-Src R73K (SH3 domain); ITC, binding of RLP2, R73K", "result": "-6.75 ± 0.02", "unit": "kcal/mol"}, {"measurement": "∆Hb (25 ºC)", "setting": "c-Src R73K (SH3 domain); ITC, binding of RLP2, R73K", "result": "-13.9 ± 0.1", "unit": "kcal/mol"}, {"measurement": "Kd", "setting": "c-Src R73K (SH3 domain); ITC, RLP2 about 2 mM titrated into SH3 (50-122 μM), R73K (control), read-out: Kd (25 ºC)", "result": "11.3 ± 0.4", "unit": "µM"}]}]}
